The values that follow are results of earlier work, collected in patent US20020102309A1, “CONTROLLED RELEASE FORMULATION FOR ADMINISTRATION OF AN ANTI-INFLAMMATORY NAPHTHALENE DERIVATIVE” (priority 1999, published 2002).

SMILES strings stand for the structures.

The test system of the data set is patients with osteoarthritis or rheumatoid arthritis.

As for `COc1ccc2cc(CCC(C)=O)ccc2c1` [nabumetone, 4-(6′-methoxy-2′-naphthyl)butan-2-20 one], the “duodenal ulcer, gastric ulcer, and gastrointestinal bleeding, patients taking the drug” value (literature (Pisko et al. 1987 and others)) is reported as “less than 1 % of patients”. Besides, the “ulcers occurred, treated patients” value (patients with osteoarthritis or rheumatoid arthritis, Dahl 1993) is listed as 0.03 % of patients.
